According to patent US11412737B2, “Mixtures of beflubutamid or optically enriched forms thereof with a second herbicide” (FMC Corporation, priority 2016, dated 2022):

Experiments:
Blackgrass (ALOMY) = experiment: pre-emergence test, weed control; type: in vivo; conditions: pre-emergent, 28 DAT
Experimental: (§1) Test compositions containing the test compounds were diluted with water to provide the appropriate test rate concentrations.
(§2) For pre-emergence testing, four disposable fiber flats (6 inch by 10 inch) for each rate of application of each herbicide solution were filled with top soil, to which seeds of each species were planted in furrows made by a template pressed on the top of the soil. The furrows were covered with soil after planting the seed and were watered well before application of the test compounds.
(§3) Fiber flats designated for treatment were placed in a spray chamber having a static platform and a movable sprayer and the height of the spray nozzle was 10.5 inches above the soil level. Once the sprayer was calibrated using water for spray volume of 30 gallons per acre, flats were sprayed with sprayer at a speed to receive a coverage equivalent of 30 gallons per acre. The application rates are those shown in the Tables below for the individual herbicidal solutions and the herbicide compositions of this invention. The pre-emergence flats were immediately placed in the greenhouse and watered lightly after treatment. Thereafter they were regularly watered and fertilized for the duration of the test.
(§4) The control of weeds was evaluated in each experimental test at 21 for wheat and 28 days after treatment (DAT) for all species. Data were analyzed using Minitab software at 95% confidence interval. The results, shown as an average of the replications, were compared with results observed in untreated control flats in the same tests. Percent control was determined by a method similar to the 0 to 100 rating system disclosed in “Research Methods in Weed Science,” 2nd ed., B. Truelove, Ed.; Southern Weed Science Society; Auburn University, Auburn, Ala., 1977. The rating system is as follows in Table 1.

Palmer amaranth (AMAPA) = experiment: pre-emergence test, weed control; type: in vivo, Amaranthus palmeri; conditions: pre-emergent, 28 DAT; for percentage of weed control, AMAPA: (−)-BFL >95% e.e., rate g ai/ha by row: r6 62, r7 125, r8 125, r9 250, r10 445, r11 890, r12 45, r13 90, r14 62+125, r15 125+125, r16 62+250, r17 125+250, r18 62+445, r19 125+445, r20 62+890, r21 125+890, r22 62+45, r23 125+45, r24 62+90, r25 125+90; for control of Palmer amaranth (AMAPA): BFL at 125 g/ha, DCI at 125 g/ha, combination of both
Experimental: as §1, §2, §3, §4

Barnyardgrass (ECHCG) = experiment: post-emergence test, weed control; type: in vivo, Echinochloa crus-galli; conditions: post-emergent, 28 DAT; for percentage of weed control, ECHCG: height 8-9 cm, rate g ai/ha by row: r7 94, r8 125, r9 188, r10 125, r11 250, r12 94+125, r13 125+125, r14 188+125, r15 94+250, r16 125+250, r17 188+250; for control of barnyardgrass (ECHCG): BFL at 125 g/ha, DCI at 125 g/ha, combination of both
Experimental: as §1
(§5) For post-emergence testing, seeds of each species for each rate of application of each herbicide solution were planted in 7.5 cm×7.5 cm plastic pots filled with potting soil. The seeds were germinated and the resulting plants were allowed to grow in a greenhouse until they reached a growth stage, such as height, suitable for testing. […] Pots of post-emergent treated plants were returned to the greenhouse and not watered for 24 hours after treatment. Thereafter they were regularly watered and fertilized for the duration of the test.
(§6) The control of weeds was evaluated in each experimental test at 21 for wheat and 28 days after treatment (DAT) for all species. […] The rating system is as follows in Table 1.

Italian ryegrass (LOLMU) = experiment: post-emergence test, weed control; type: in vivo, Lolium perenne. multiflorum; conditions: post-emergent, 28 DAT; for percentage of weed control, LOLMU: height 5-6 cm, rate g ai/ha by row: r25 94, r26 125, r27 188, r28 125, r29 250, r30 94+125, r31 125+125, r32 188+125, r33 94+250, r34 125+250, r35 188+250; for control of Italian rygrass (LOLMU): combination of both
Experimental: as §1
(§7) For post-emergence testing, seeds of each species for each rate of application of each herbicide solution were planted in 7.5 cm×7.5 cm plastic pots filled with potting soil. The seeds were germinated and the resulting plants were allowed to grow in a greenhouse until they reached a growth stage, such as height, suitable for testing. Treatments were applied using compressed air in a track spray chamber at 30 gallons/acre (280 L/ha) using a TeeJet 8001E nozzle at 40 psi (2.76 bars). Pots of post-emergent treated plants were returned to the greenhouse and not watered for 24 hours after treatment. Thereafter they were regularly watered and fertilized for the duration of the test.
as §4

[1] = test system: Littleseed canarygrass (PHAMI); experiment: post-emergence test, weed control; type: in vivo, Phalaris minor; conditions: post-emergent, 28 DAT, height 7-8 cm, rate g ai/ha by row: r25 94, r26 125, r27 188, r28 125, r29 250, r30 94+125, r31 125+125, r32 188+125, r33 94+250, r34 125+250, r35 188+250
Experimental: as §1, §7, §4

Common chickweed (STEME) [2] = experiment: pre-emergence test, weed control; type: in vivo, Stellaria media; conditions: pre-emergent, 28 DAT; BFL at 187.5 g, PYX at 90 g, combination of both
Experimental: as §1, §2
Fiber flats designated for treatment were placed in a spray chamber having a static platform and a movable sprayer and the height of the spray nozzle was 10.5 inches above the soil level. Once the sprayer was calibrated using water for spray volume of 30 gallons per acre, flats were sprayed with sprayer at a speed to receive a coverage equivalent of 30 gallons per acre. […]
The control of weeds was evaluated in each experimental test at 21 for wheat and 28 days after treatment (DAT) for all species. Data were analyzed using Minitab software at 95% confidence interval. […] Percent control was determined by a method similar to the 0 to 100 rating system disclosed in “Research Methods in Weed Science,” 2nd ed., B. Truelove, Ed.; Southern Weed Science Society; Auburn University, Auburn, Ala., 1977. […]

Jimsonweed (DATST) = experiment: pre-emergence test, weed control; type: in vivo, Datura stramonium; conditions: pre-emergent, 28 DAT, combination of both
Experimental: as §1, §2, §3, §4

Wild oat (AVEFA) = experiment: pre-emergence test, weed control; type: in vivo, Avena fatua; conditions: pre-emergent, 21 DAT, rate g ai/ha by row: r4 94, r5 125, r6 250, r7 125, r8 250, r9 500, r10 94+125, r11 125+125, r12 94+250, r13 125+250, r14 94+500, r15 125+500
Experimental: as §1, §2, §3, §4

Common chickweed (STEME) [3] = experiment: post-emergence test, weed control; type: in vivo, Stellaria media; conditions: post-emergent, 28 DAT
Experimental: as §1, §5, §6

[4] = BFL at 188 g/ha, DCI at 125 g/ha
[5] = DCI at 250 g/ha, BFL at 125 g/ha
[6] = COC 1%, rate g ai/ha by row: r5 94, r6 125, r7 250, r8 1.25, r9 2.5, r10 5, r11 94+1.25, r13 125+1.25, r15 94+2.5, r17 125+2.5, r19 94+5, r21 125+5

For `CC1(C)CON(Cc2ccc(Cl)cc2Cl)C1=O` [DCI, 2-(2,4-dichlorophenyl)methyl-4,4-dimethyl-3-isoxazolidinone], the “percentage of weed control, ALOMY” value (Blackgrass (ALOMY); (+)-BFL >95% e.e., rate g ai/ha by row: r6 62.5, r7 125, r8 62.5, r9 125, r10 222, r11 445, r12 22.5, r13 45, r14 62.5+62.5, r15 125+62.5, r16 62.5+125, r17 125+125, r18 62.5+222, r19 125+222, r20 62.5+445, r21 125+445, r22 62.5+22.5, r23 125+22.5, r24 62.5+45, r25 125+45, 62.5 g ai/ha) was 65%, the “percentage of weed control, ALOMY” value (Blackgrass (ALOMY); (+)-BFL >95% e.e., rate g ai/ha by row: r6 62.5, r7 125, r8 62.5, r9 125, r10 222, r11 445, r12 22.5, r13 45, r14 62.5+62.5, r15 125+62.5, r16 62.5+125, r17 125+125, r18 62.5+222, r19 125+222, r20 62.5+445, r21 125+445, r22 62.5+22.5, r23 125+22.5, r24 62.5+45, r25 125+45, 125 g ai/ha) was 64% and the “percentage of weed control, ALOMY” value (Blackgrass (ALOMY); (−)-BFL >95% e.e., rate g ai/ha by row: r6 62, r7 125, r8 125, r9 250, r10 445, r11 890, r12 45, r13 90, r14 62+125, r15 125+125, r16 62+250, r17 125+250, r18 62+445, r19 125+445, r20 62+890, r21 125+890, r22 62+45, r23 125+45, r24 62+90, r25 125+90, 125 g ai/ha) was 98%. The “percentage of weed control, ALOMY” value (Blackgrass (ALOMY); (−)-BFL >95% e.e., rate g ai/ha by row: r6 62, r7 125, r8 125, r9 250, r10 445, r11 890, r12 45, r13 90, r14 62+125, r15 125+125, r16 62+250, r17 125+250, r18 62+445, r19 125+445, r20 62+890, r21 125+890, r22 62+45, r23 125+45, r24 62+90, r25 125+90, 250 g ai/ha) was 99%, the “percentage of weed control, AMAPA” value (Palmer amaranth (AMAPA); 125 g ai/ha) was 94% and the “percentage of weed control, AMAPA” value (Palmer amaranth (AMAPA); 250 g ai/ha) was 99%. For the same compound, the “control of Palmer amaranth (AMAPA)” value (Palmer amaranth (AMAPA)) was 30%, the “percentage of weed control, ECHCG” value (Barnyardgrass (ECHCG); 125 g ai/ha) was 74% and the “percentage of weed control, ECHCG” value (Barnyardgrass (ECHCG); 250 g ai/ha) was 69%. The “control of barnyardgrass (ECHCG)” value (Barnyardgrass (ECHCG)) was 74%, the “percentage of weed control, LOLMU” value (Italian ryegrass (LOLMU); 125 g ai/ha) was 0% and the “percentage of weed control, LOLMU” value (Italian ryegrass (LOLMU); 250 g ai/ha) was 9%. The “control of Italian rygrass (LOLMU)” value (Italian ryegrass (LOLMU); [4]) was 0%, the “control of Italian rygrass (LOLMU)” value (Italian ryegrass (LOLMU); [5]) was 9% and the “percentage of weed control, PHAMI” value ([1]; 125 g ai/ha) was 4%. The “percentage of weed control, PHAMI” value ([1]; 250 g ai/ha) was 2%.

In the case of `CCC(Oc1ccc(F)c(C(F)(F)F)c1)C(=O)NCc1ccccc1` (racemic) [BFL, 2-[4-fluoro-3-(trifluoromethyl)phenoxy]-N-(phenylmethyl)butanamide], the “control of common chickweed” value (Common chickweed (STEME) [2]) is reported as 6%, the control of jimsonweed (Jimsonweed (DATST); BFL at 62.5 g, PTX at 90 g) is reported as 4% and the control of jimsonweed (Jimsonweed (DATST); BFL at 187.5 g, PYX at 90 g) is reported as 30%. For the same compound, the “percentage of weed control, Wild Oat AVEFA” value (Wild oat (AVEFA); 94 g ai/ha) was 10%, the “percentage of weed control, Wild Oat AVEFA” value (Wild oat (AVEFA); 125 g ai/ha) was 9% and the “control of Palmer amaranth (AMAPA)” value (Palmer amaranth (AMAPA)) was 69%. For the same compound, the “percentage of weed control, Barnyardgrass ECHCG” value (Barnyardgrass (ECHCG); [6]) was 5%, the “control of barnyardgrass (ECHCG)” value (Barnyardgrass (ECHCG)) was 6% and the “percentage of weed control, LOLMU” value (Italian ryegrass (LOLMU)) was 0%. The “control of Italian rygrass (LOLMU)” value (Italian ryegrass (LOLMU); [4]) was 0%, the “control of Italian rygrass (LOLMU)” value (Italian ryegrass (LOLMU); [5]) was 0% and the “percentage of weed control, PHAMI” value ([1]; 94 g ai/ha) was 0%. The “percentage of weed control, PHAMI” value ([1]; 188 g ai/ha) was 1%, the “percentage of weed control, Common chickweed STEME” value (Common chickweed (STEME) [3]; [6]) was 5% and the “control of common chickweed” value (Common chickweed (STEME) [3]; BFL at 187.5 g, PYX at 45 g, combination of both) was 16%.
